# Tests used:
# [1] = system: Aβ; test: Aβ ELISA, conditioned media of primary cortical neurons; type: cell-based; conditions: 1 or 5 μM, 24 h, vs control (10% DMSO)
# Procedure: (§1) Aβ ELISA. Mouse brains were homogenized in tissue homogenization buffer containing 250 mM sucrose, 20 mM Tris base, protease, and phosphatase inhibitors. To measure soluble Aβ, DEA extraction was performed. Crude 10% homogenate was mixed with an equal volume of 0.4% diethylamine (DEA), sonicated, and ultracentrifuged for 1 hr at 100,000×g. The supernatant was collected and neutralized with 10% 0.5 M Tris, pH 6.8. Sensitive and specific ELISAs to rodent Aβ1-40 was purchased from IBL Transatlantic (Toronto, Canada) and conducted per the manufacturer's protocol.
# To test whether BTA-EG4 alters Aβ production in vitro, primary cortical neurons were treated with BTA-EG4 (1 or 5 μM) or control (10% DMSO), and Aβ levels were measured using ELISA. […] We then examined whether BTA-EG4 can alter Aβ levels in vivo by injecting wild-type mice daily for 2 weeks with BTA-EG4 (15 or 30 mg/kg, 10% DMSO in saline, i.p.). […] Furthermore, BTA-EG4 altered APP processing in vivo, as monitored by increased sAPPα (α-secretase cleavage product) and decreased sAPPβ (β-secretase cleavage product) levels in BTA-EG4 injected wild-type mice (30 mg/kg, i.p) compared to control-injected mice (FIGS. 1E, 1F).
# [2] = system: soluble Aβ 40; test: Aβ ELISA, 3× Tg AD mice; type: in vivo; conditions: 30 mg/kg daily, 2 weeks
# Procedure: as §1
# [3] = Morris water maze, wild-type mice; type: in vivo, wild-type (B6) mice
# From the text: Morris water maze. To examine the effects of BTA-EG4 on cognitive performance, we injected wild-type (B6) mice with BTA-EG4 daily for one week, and then began behavior testing. We continued daily injections for another week, for a total treatment course of two weeks. The Morris water maze task included training mice to locate a submerged, hidden platform using extramaze visuospatial cues. This system consists of a large, white circular pool with a Plexiglas platform painted white and submerged below the surface of the water, made opaque by the addition of white non-toxic paint. During training, the platform was hidden 14 inches from the side wall in one quadrant of the maze. The animals were gently placed at random into one of the four quadrants, separated by 90°, and facing the wall. The time required (latency) to locate the hidden platform was recorded by a blinded observer and tracked using TOPSCAN, and was limited to 90 sec. Animals failing to find the platform within 90 sec were assisted to the platform. Animals were allowed to remain on the platform for 15 sec on the first trial and 10 sec on subsequent trials. 24 hrs after the final learning trial, a probe trial of 90 sec was given. We recorded the percentage of time spent in the quadrant where the platform was previously located. As a control experiment, we tested motor impairment or visual discriminative ability. The animals were required to locate a clearly visible black platform (placed in a different location), raised above the water surface, at least 12 hrs after the last trial.
# [4] = system: Ras; test: GST-Raf1-RBD pulldown of active Ras, brain lysates of wild-type mice; type: in vivo; conditions: 30 mg/kg daily for 2 weeks
# Procedure: GST-pull-down assay. To measure levels of active Ras, brain lysate homogenized with Ral buffer (25 mM Tris-HCl, pH 7.4, 250 mM NaCl, 0.5% NP40, 1.25 mM MgCl2, and 5% glycerol) from APP transgenic, APP knockout, or wild-type mice was incubated with GST-Raf-RBD purified protein coupled with GLUTATHIONE SEPHAROSE™ (Amersham) overnight at 4° C. After 24 hours, pellets were washed with Ral buffer and western blotting was conducted with anti-Ras.
# We next investigated the molecular mechanism by which BTA-EG4 may alter dendritic spine formation. Ras, a small GTPase, is involved in dendritic spine formation and synaptic delivery of AMPA receptors (Zhu et al., 2002; Lee et al., 2011). Moreover, abnormal Ras signaling is associated with neurodegenerative disease, causing cognitive impairments and learning deficits (Stornetta and Zhu, 2011). Thus, we initially investigated the effect of BTA-EG4 on Ras signaling by treating primary hippocampal neurons with BTA-EG4 (5 μM) or control for 24 hrs. […] Further, levels of active Ras were elevated following BTA-EG4 treatment (5 μM) in primary cortical neurons (FIG. 7C) and following BTA-EG4 treatment (30 mg/kg) in wild-type mice (FIG. 7D). We also examined whether BTA-EG4 can alter the activity of downstream Ras signaling proteins, including p-ERK and p-CREB.
# [5] = Tolerability of daily i.p. injections with necropsy; type: in vivo, wild-type mice; conditions: ≦50 mg/kg i.p. daily, 16 days
# [6] = 30 mg/kg i.p., probe trial day 5
substance,measurement,setting,value
BTA-EG4,Aβ protein levels,[1],significantly decreased
same,soluble Aβ 40 levels,[2]; 2-3 months,decrease
same,soluble Aβ 40 level,[2]; 6-10 months,without changes
same,soluble Aβ 40 level,[2]; 13-16 months,none of the measured parameters were significantly altered
same,escape latency during training,[3]; 30 mg/kg i.p. daily,significantly reduced
same,rate of platform crossing,[3]; [6],significantly higher rate
same,time spent in the target quadrant,[3]; [6],spent more time
same,path length to the escape platform,"[3]; 30 mg/kg i.p., training trials",no difference
same,swim speed,"[3]; 30 mg/kg i.p., CTRL=117±3.1 mm/s, p<0.01",130±3.6 mm/s
same,levels of active Ras,[4],elevated
same,necropsy findings,[5],no adverse effects on major organs
same,tolerability of daily injections,[5],well tolerated

# Source: patent US20160000762A1, “IMPROVING COGNITIVE FUNCTION” (THE REGENTS OF THE UNIVERSITY OF CALIFORNIA, priority 2013, published 2016)
